Laboratory results from US20060194800A1, “Pteridine derivatives as nitric oxide synthase activators” (University of Strathclyde, priority 2005, published 2006).
Entries after “also recorded” stand apart in the source; their conditions may differ.

Assays:
rat aorta = assay: Rat aorta ring relaxation (endogenous tetrahydrobiopterin present); conditions: normal rings, phenylephrine-contracted
Protocol: Rings (5 mm long) of rat pulmonary artery and aorta, were supported on a pair of intraluminal wires at 1 gm tension for one hour and then contracted with their EC50 phenylephrine concentration, which for pulmonary artery was 3.6×10^−8 M (derived from preliminary experiments) and for aorta was 11.8×10^−8 M (from the previously published literature). The rings were then relaxed with carbachol (10 μM). If the relaxation to carbachol was >75%, then the tissues were used to generate dose responses by addition of tetrahydrobiopterin (BH4) or the analogues. Stock BH4 was stored at −20° C. and the dilutions were prepared using saline just before adding the drug into the bath. Solutions of analogues were stored at 4° C. Cumulatively increasing concentrations of the analogues were added to the bath and the extent of relaxation was measured when it had stabilised. Another ring from the same rat was treated in parallel with the solvent for the analogue. The solvent used was NH4OH. The results are shown graphically in FIGS. 1 and 2.

eNOS = eNOS immunostaining in endothelium of small pulmonary arteries of treated rats; type: in vivo, rat; conditions: 14.1 mg/kg/day s.c.
Protocol: Rats were maintained in a chamber containing atmospheric air at 550 mbar for 14 days. […] A group of normotensive and a group of pulmonary hypertensive rats received daily subcutaneous injections of WSG1002 in a dose of 14.1 mg/kg/day during the time that they were in the hypoxic chamber. Other groups of normotensive and pulmonary hypertensive rats had no drugs and are used as control comparison groups. These studies used lungs from the four groups of rats (1) pulmonary hypertensive and treated with WSG1002, (2) normotensive and treated with WSG1002, (3) pulmonary hypertensive and not treated with WSG1002 (4) normotensive and not treated with WSG1002. The rat lungs were fixed with 4% formaldehyde, wax embedded, and 3 μm thick sections were cut. The sections were mounted on silanated slides, rehydrated and treated with 0.3% H2O2 to block endogenous peroxidase activity. Antigens were unmasked by treatment in a microwave oven. […] In the endothelium, the intensity of staining was quantified on a scale of 0-3, where 0=no staining or the same as the negative control, 1=faint staining or staining in a few target cells, 2=moderate staining in most target cells, 3=the maximum staining observed with that antibody in the positive control slides.

## CC(=O)C1=Nc2c(nc(N)[nH]c2=O)NC1(C)C [wsg1002, 6-Acetyl-2-amino-7,7-dimethyl-7,8-dihydro-3H-pteridin-4-one]
Rat aorta
  relaxation of rat aorta rings: no action; also recorded: no effect
eNOS; normotensive rats
  eNOS staining in small pulmonary artery endothelium: increased staining for eNOS
eNOS; pulmonary hypertensive rats vs treated normotensive
  eNOS staining in small pulmonary artery endothelium: no further increase
